From PMC4534190, “Characterization of the MUC1-C Cytoplasmic Domain as a Cancer Target” (PLoS ONE, 2015)
Non-standard residues stand in square brackets, D forms with d. Residues, ends and D or L forms follow the SMILES beside them. No end group written: not given here. *: point of attachment. FITC = O=C1OC2(c3ccc(O)cc3Oc3cc(O)ccc32)c2ccc(NC(=S)*)cc21

Legend:
GST-MUC1-CD(AQA) = test: Binding to GST-MUC1-CD(AQA) mutant; settings: CQC motif mutated to AQA; only background fluorescence; data not shown; FITC-labeled peptide, 1 h at 37°C
Protocol: Binding affinities of FITC-GO-202 and FITC-GO-203 were determined by the saturation binding method. In short, 96-well glutathione- or nickel-coated plates (Thermo Fisher, Waltham, MA) were incubated with 150 μl of PBS buffer containing 21.45 μg/ml of GST-MUC1-CD, GST-MUC1-CD(AQA) or His-MUC1-CD overnight at 4°C followed by washing with 50 mM Tris and 150 mM NaCl containing 0.1% Tween-20 (TBST), and blocking with 0.5% BSA in TBS. The plates were then washed 3 times with TBST. FITC-GO-202 or FITC-GO-203 was added to the wells at 0.19 μM to 25 μM. Nonspecific binding was determined in the presence of GST alone. Plates were incubated for 1 h at 37°C on a shaker followed by washing 3 times with binding buffer. Fluorescence intensity was determined on an Infinite M1000 PRO Tecan Microplate Reader (Tecan, NC) with excitation at 490 nm and emission at 525 nm. GraphPad Prism 4.0 Software (San Diego, CA) was used to calculate the equilibrium dissociation constant (Kd) by a non-linear regression method.
(§1) Vectors expressing GST-MUC1-CD, GST-MUC1-CD(AQA) and His-MUC1-CD, GFP-MUC1-CD and FLAG-MUC1-CD have been described. His-tagged MUC1-CD (rat and dog) were cloned in pET28a vector (Clontech, Mountain View, CA) and expressed in E. coli BL21(DE3).

endogenous MUC1-C [1] = test: Binding to endogenous MUC1-C in ZR-75-1 cells, coimmunoprecipitation; type: cell-based, human; settings: 5 μM FITC-GO-203 overnight, non-reducing
Protocol: (§2) Human ZR-75-1 breast cancer (ATTC) and H1975 lung cancer (ATTC) cell lines were grown in RPMI 1640 supplemented with 10% heat-inactivated fetal bovine serum (HI-FBS), 100 units/ml penicillin, and 100 μg/ml streptomycin. 293T cells were grown in DMEM with 10% HI-FBS, antibiotics, and 2 mmol/L L-glutamine. Cells were treated with FITC conjugated-GO-202 (FITC-GO-202), FITC-GO-203 or unconjugated GO-203 synthesized by the MIT Biopolymer Laboratory (Cambridge, MA) and AnaSpec, Inc (San Jose, CA). The p3XFLAG-CMV-10 (Sigma, St. Louis, MO), pEGFP-C1 and pDsRed-Monomer-N1 (Clontech, Mountain View, CA) vectors were used for transfection of rat and dog MUC1-CD and full length human MUC1 in 293T cells in the presence of Lipofectamine 2000 (Life Technologies, Grand Island, NY).
(§3) Cell lysates were prepared as described. Soluble proteins were immunoprecipitated with anti-FLAG (Sigma, St. Louis, MO), anti-MUC1-C (Thermo Fisher Scientific, Waltham, MA) or a control IgG. The precipitates and lysates not subjected to immunoprecipitation were immunoblotted with anti-MUC1-C, anti-GFP (Abcam, Cambridge, MA), anti-FLAG and anti-FITC (Life Technologies, Grand Island, NY). Reactivity was detected with horseradish peroxidase-conjugated secondary antibodies and chemiluminescence.

endogenous MUC1-C [2] = test: Binding to endogenous MUC1-C in H1975 cells, coimmunoprecipitation; type: cell-based, human; settings: 5 μM FITC-GO-203 overnight, non-reducing
Protocol: as §2, §3

DsRedMN1-MUC1 = test: Localization in 293T cells expressing DsRedMN1-MUC1, immunofluorescence microscopy; type: cell-based, human; settings: 5 μM FITC-GO-203, 3 h
Protocol: as §2
(§4) 293T cells were transfected with MUC1-pDsRed-Monomer-N1 in the presence of Lipofectamine 2000 for 48 h. The cells were then incubated with FITC-GO-203 for 3 h and examined using a Nikon-deconvolution wide-field epifluorescence system with a 100x oil immersion objective. Images were captured using NIS-element software (Nikon) and analyzed by ImageJ software.

293T cells = test: Localization in untransfected 293T cells, immunofluorescence microscopy; type: cell-based; settings: FITC-GO-203 alone, 5 μM, 3 h
Protocol: as §2, §4

human His-MUC1-CD = test: In vitro dimerization of human His-MUC1-CD; type: biochemical; settings: CP-2 or GO-203 150 μM; 1 h at room temperature; non-reducing gel, anti-MUC1-C immunoblot
Protocol: as §1
(§5) Purified His-MUC1-CD was incubated in PBS or increasing amounts of GO-203 for 1 h at room temperature as described. Proteins were then separated in non-reducing polyacrylamide gels and analyzed by immunoblotting.

[3] = test system: rat GFP-MUC1-CD and FLAG-MUC1-CD; test: MUC1-CD homodimerization in 293T cells, rat, coimmunoprecipitation; type: cell-based; settings: 5 μM each day for 3 days, anti-FLAG precipitation
Protocol: as §2, §3

[4] = test system: dog GFP-MUC1-CD and FLAG-MUC1-CD; test: MUC1-CD homodimerization in 293T cells, dog, coimmunoprecipitation; type: cell-based; settings: 5 μM each day for 3 days, anti-FLAG precipitation
Protocol: as §2, §3

[5] = test system: human GFP-MUC1-CD and FLAG-MUC1-CD; test: MUC1-CD homodimerization in 293T cells, human, coimmunoprecipitation; type: cell-based; settings: 5 μM each day for 3 days, anti-FLAG precipitation
Protocol: as §2, §3

[6] = test system: MUC1-C-expressing carcinoma and leukemia cells; parameters: method as in PMID 21421804, PMID 23867470; settings: ref [19],[32]; cited from earlier work
His-MUC1-CD (dog) (dog) = test: non-reducing PAGE with immunoblot; purified His-MUC1-CD in PBS (pH 7.4) or with GO-203 (50, 150, 450 μM) for 1 h at room temperature; immunoblot with anti-MUC1-C
[7] = target: His-MUC1-CD (human) (human); test: as above
His-MUC1-CD (rat) (rat) = test: as above
GST-MUC1-CD = target: T1, GST-MUC1-CD (Homo sapiens, UniProt P15941); test: MS-bridge analysis of disulfide linkage, MALDI-TOF-MS; type: binding; settings: incubation with purified GST-MUC1-CD, tryptic digest, single disulfide bridge at the CQC motif
T1 construct: made in house
T1 sequence (P15941 1182-1255 limits assumed): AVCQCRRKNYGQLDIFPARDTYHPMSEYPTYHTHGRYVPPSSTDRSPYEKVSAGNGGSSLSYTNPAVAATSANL
Protocol: (§6) Binding experiments with MUC1-CD and GO-203 were performed as described. Complexes were eluted from the glutathione beads, dialyzed and concentrated using amicon ultra centrifugal filters (Millipore, Billerica, MA). The complexes were then subjected to non-reducing electrophoresis and stained with Coomassie Blue. Protein bands were excised and analyzed by MALDI-TOF-MS as described. Briefly, gels were cut into small, uniform pieces; the gel pieces were dehydrated with acetonitrile and then rehydrated in 100 mM ammonium bicarbonate followed by 2 washing and drying cycles with ammonium bicarbonate and acetonitrile, respectively. After complete dehydration, gel pieces were suspended in 12.5 ng/μl trypsin in 50 mM ammonium bicarbonate (50 μl). In-gel digestion was carried out at 37°C for 10–12 h and the samples were acidified with 50 μl of 0.5% TFA. Thirty μl of this mixture was desalted by C-18 containing Zip-Tip (Millipore, Billerica, MA). Trypsin-digested peptides were analyzed by MALDI-TOF-MS (ABI-4800). MALDI-TOF-MS analyses were performed using a Reflector method that was optimized for acquisition for the mass range of 700–3500 amu. Data was collected and analyzed using the data Explorer software package (AB-Sciex, Framingham, MA) and MASCOT (ver.2.0.04, Matrix Science, Boston, MA). MS-bridge analysis was done using Protein Prospector (ver.4.27.2 basic and ver.5.0, UCSF). […]

GST = test: MS-bridge analysis of disulfide linkage, MALDI-TOF-MS, GST control; type: binding; settings: tryptic digest of GST+GO-203, dimer peak not observed
Protocol: as §6

rat His-MUC1-CD = test: In vitro dimerization of rat His-MUC1-CD; type: biochemical; settings: GO-203 50, 150 and 450 μM; 1 h at room temperature; pH 7.4; non-reducing gel, anti-MUC1-C immunoblot
Protocol: as §1, §5

dog His-MUC1-CD = test: In vitro dimerization of dog His-MUC1-CD; type: biochemical; settings: GO-203 50, 150 and 450 μM; 1 h at room temperature; non-reducing gel, anti-MUC1-C immunoblot
Protocol: as §1, §5

[8] = target: His-MUC1-CD (human) (human); test: saturation binding of FITC-peptide to protein on coated plates (fluorescence); His-MUC1-CD held on nickel-coated 96-well plates; FITC-GO-203 0.19 μM to 25 μM, 1 h at 37°C; apparent Kd by non-linear regression
GST-MUC1-CD (human) = test: saturation binding of FITC-peptide to protein on coated plates (fluorescence); GST-MUC1-CD held on glutathione-coated 96-well plates; FITC-peptide 0.19 μM to 25 μM, 1 h at 37°C; nonspecific binding from GST alone; apparent Kd by non-linear regression

Molecule: N=C(N)NCCC[C@@H](NC(=O)[C@@H](CCCNC(=N)N)NC(=O)[C@@H](CS)NC(=O)[C@@H](CCC(N)=O)NC(=O)[C@@H](CS)NC(=O)[C@@H](CCCNC(=N)N)NC(=O)[C@@H](CCCNC(=N)N)NC(=O)[C@@H](CCCNC(=N)N)NC(=O)[C@@H](CCCNC(=N)N)NC(=O)[C@@H](CCCNC(=N)N)NC(=O)[C@@H](CCCNC(=N)N)NC(=O)[C@@H](CCCNC(=N)N)NC(=O)[C@@H](CCCNC(=N)N)NC(=O)[C@@H](CCCNC(=N)N)NC(=S)Nc1ccc2c(c1)C(=O)OC21c2ccc(O)cc2Oc2cc(O)ccc21)C(=O)N[C@H](CCCCN)C(=O)N[C@H](CC(N)=O)C(=O)O [FITC-GO-203] ({FITC}-[dR][dR][dR][dR][dR][dR][dR][dR][dR][dC][dQ][dC][dR][dR][dK][dN]-OH; N-terminus and C-terminus assumed)
- interaction with GST-MUC1-CD(AQA) (GST-MUC1-CD(AQA)): no interaction was evident
- complex formation with endogenous MUC1-C (endogenous MUC1-C [1]; ZR-75-1 breast cancer cells, anti-MUC1-C precipitates, anti-FITC immunoblot): forms complexes with MUC1-C
- interaction with MUC1-C monomeric and oligomeric forms (endogenous MUC1-C [1]; ZR-75-1 cells, entire immunoblots): interacts with the different MUC1-C monomeric and oligomeric forms
- interaction with MUC1-C monomeric and oligomeric forms (endogenous MUC1-C [2]; H1975 cells, entire immunoblots): interacts with the different MUC1-C monomeric and oligomeric forms
- association with endogenous MUC1-C (endogenous MUC1-C [2]; H1975 lung cancer cells, anti-MUC1-C precipitates, anti-FITC immunoblot): associates with endogenous MUC1-C
- co-localization of DsRed (MUC1) and FITC signals (DsRedMN1-MUC1; 293T cells expressing DsRedMN1-MUC1): co-localization of the DSRed and FITC signals (Red+Green→Yellow) was observed along the membrane
- FITC staining in cells expressing MUC1 compared to the MUC1-null setting (DsRedMN1-MUC1; 293T cells): brighter
- localization of FITC signals (293T cells): localized along the membrane and in the cytosol

Molecule: AQARRKN [CP-2, control peptide, which includes AQARRKN, reference compound]
- inhibition of human His-MUC1-CD homodimerization (human His-MUC1-CD): no effect
- inhibition of rat FLAG-MUC1-CD/GFP-MUC1-CD complexes in cells [3]: no apparent effect
- inhibition of dog MUC1-CD homodimerization in cells [4]: no effect
- inhibition of human MUC1-CD homodimerization in cells [5]: no effect
- inhibition of survival of MUC1-C-expressing carcinoma and leukemia cells [6]: not CP-2, inhibits the survival of MUC1-C-expressing carcinoma and leukemia cells

Molecule: His-MUC1-CD (dog) (domain or fragment)
- stoichiometry N (His-MUC1-CD (dog) (dog)): 2

Molecule: His-MUC1-CD (human) (domain or fragment)
- stoichiometry N [7]: 2

Molecule: His-MUC1-CD (rat) (domain or fragment)
- stoichiometry N (His-MUC1-CD (rat) (rat)): 2

Molecule: [R]9-CQCRRKN [GO-203, peptide in which the poly-Arg cell-penetrating domain is linked to CQCRRKN (D-amino acids)]
- formation of disulfide bridges with MUC1-CD (GST-MUC1-CD): forms disulfide bridges specifically with MUC1-CD
- formation of disulfide bridges with GST (GST): not with GST
- inhibition of rat His-MUC1-CD homodimerization (rat His-MUC1-CD): decreased homodimerization
- inhibition of dog His-MUC1-CD homodimerization (dog His-MUC1-CD): effectively inhibited
- inhibition of human His-MUC1-CD homodimerization (human His-MUC1-CD): effectively inhibited
- inhibition of rat FLAG-MUC1-CD/GFP-MUC1-CD complexes in cells [3]: inhibition of the FLAG-MUC1-CD/GFP-MUC1-CD complexes
- inhibition of dog MUC1-CD homodimerization in cells [4]: inhibition of MUC1-CD homodimerization
- inhibition of human MUC1-CD homodimerization in cells [5]: inhibition of MUC1-CD homodimerization
- inhibition of survival of MUC1-C-expressing carcinoma and leukemia cells [6]: inhibits the survival of MUC1-C-expressing carcinoma and leukemia cells

B1: FITC-GO-203 (peptide)
peptide: {FITC}-[dR][dR][dR][dR][dR][dR][dR][dR][dR][dC][dQ][dC][dR][dR][dK][dN]
modifications: cysteine pairing not given here
- Kd [8]: 860 nM
- Kd (GST-MUC1-CD (human)): 630 nM

B2: FITC-GO-202 (peptide)
peptide: {FITC}-RRRRRRRRRCQCRRKN
modifications: cysteine pairing not given here
- Kd (GST-MUC1-CD (human)): 880 nM
